The molecules below were run against T1, human IBAT (Homo sapiens, UniProt Q12908) (assay: In vitro assay of IBAT-mediated uptake of [14C]-taurocholate (TC) in H14 cells). Conditions: 50 μM.
T1 construct: expressed in transfected cells; host or cells: Baby hamster kidney (BHK) cells, clone H14
T1 sequence (Q12908 1-348): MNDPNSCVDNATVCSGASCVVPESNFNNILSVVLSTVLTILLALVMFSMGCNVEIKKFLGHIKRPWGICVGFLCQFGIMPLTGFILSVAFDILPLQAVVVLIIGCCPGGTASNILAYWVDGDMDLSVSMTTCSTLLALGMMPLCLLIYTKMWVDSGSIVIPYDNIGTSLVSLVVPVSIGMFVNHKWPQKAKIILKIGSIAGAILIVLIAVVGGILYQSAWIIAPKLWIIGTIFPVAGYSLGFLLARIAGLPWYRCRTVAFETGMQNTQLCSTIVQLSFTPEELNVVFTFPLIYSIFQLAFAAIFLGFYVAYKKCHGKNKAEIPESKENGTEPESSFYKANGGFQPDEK
Assay type: cell-based
Method: In Vitro Assay of Compounds that Inhibit IBAT-Mediated Uptake of [^14C]-Taurocholate (TC) in H14 Cells
Baby hamster kidney cells (BHK) transfected with the cDNA of human IBAT (H14 cells) are seeded at 60,000 cells/well in 96 well Top-Count tissue culture plates for assays run within in 24 hours of seeding, 30,000 cells/well for assays run within 48 hours, and 10,000 cells/well for assays run within 72 hours.
On the day of assay, the cell monolayer is gently washed once with 100 μl assay buffer (Dulbecco's Modified Eagle's medium with 4.5 g/L glucose+0.2% (w/v) fatty acid free bovine serum albumin-(FAF)BSA). To each well 50 μl of a two-fold concentrate of test compound in assay buffer is added along with 50 μl of 6 μM [^14C]-taurocholate in assay buffer (final concentration of 3 μM [^14C]-taurocholate). The cell culture plates are incubated 2 hours at 37° C. prior to gently washing each well twice with 100 μl 4° C. Dulbecco's phosphate-buffered saline (PBS) containing 0.2% (w/v) (FAF)BSA. The wells are then gently washed once with 100 μl 4° C. PBS without (FAF)BSA. To each 200 μl of liquid scintillation counting fluid is added, the plates are heat sealed and shaken for 30 minutes at room temperature prior to measuring the amount of radioactivity in each well on a Packard Top-Count instrument.

inhibition at 50 µM	SMILES
49%	CCCCCCNc1ccc2c(c1)[C@H](c1ccccc1)[C@H](O)[C@](CC)(CCCC)CS2(=O)=O [Example 40, (3α,4α,5α) 3-Butyl-3-ethyl-7-(n-hexylamino)-4-hydroxy-5-phenyl-2,3,4,5-tetrahydrobenzothiepine-1,1-dioxide]
51%	C1=C(c2ccccc2)c2ccccc2SCC12CCCCC2 [Example 57, 5-Phenyl-2,3-dihydrospirobenzothiepine-3,1′-cyclohexane]
20%	O=S1(=O)CC2(CCCCC2)C2OC2(c2ccccc2)c2ccccc21 (stereo not drawn) [Example 58, 8b-Phenyl-1a,2,3,8b-tetrahydrospiro(benzothiepino[4,5-b]oxirene-2,1′-cyclohexane)-4,4-dioxide]

Same assay, conditions: 100 uM; read-out: In vitro % Inhibition of TC Uptake @ 100 uM

inhibition at 100 µM	SMILES
0%	CCCCC1(CC)C=C(c2ccccc2)c2ccccc2SC1 (stereo not drawn) [Example 3, 3-Butyl-3-ethyl-5-phenyl-2,3-dihydrobenzothiepine]
85%	CCCC[C@]1(CC)CS(=O)(=O)c2ccccc2[C@H](c2ccccc2)[C@H]1O [Example 6b, (3α,4β,5α) 3-Butyl-3-ethyl-4-hydroxy-5-phenyl-2,3,4,5-tetrahydro-benzothiepine-1,1-dioxide]
41%	CCCC[C@]1(CC)CS(=O)(=O)c2ccccc2[C@@]2(c3ccccc3)O[C@@H]12 [Example 8a, (1aα,2β,8bα) 2-Butyl-2-ethyl-8b-phenyl-1α,2,3,8b-tetrahydro-benzothiepino[4,5-b]oxirene-4,4-dioxide]
13%	CC[C@@H]1CS(=O)(=O)c2ccccc2[C@H](c2ccccc2)[C@H]1O [Example 14a, (3α,4β,5α)-3-Ethyl-4-hydroxy-5-phenyl-2,3,4,5-tetrahydro-benzothiepine-1,1-dioxide]
18%	CC[C@@H]1CS(=O)(=O)c2ccccc2[C@@H](c2ccccc2)[C@H]1O [Example 14b, (3α,4β,5β) 3-Ethyl-4-hydroxy-5-phenyl-2,3,4,5-tetrahydrobenzothiepine-1,1-dioxide]
6%	CCCCC1(CC)C=Cc2ccccc2SC1 (stereo not drawn) [Example 18, 3-Butyl-3-ethyl-2,3-dihydrobenzothiepine]
0%	CCCC[C@]1(CC)CS(=O)(=O)c2ccccc2[C@@H]2O[C@@H]21 [Example 19a, (1aα,2α,8bα) 2-Butyl-2-ethyl-1a,2,3,8b-tetrahydro-benzothiepino[4,5-b]oxirene-4,4-dioxide]
15%	CCCC[C@]1(CC)CS(=O)(=O)c2ccccc2[C@H]2O[C@H]21 [Example 19b]
37%	CCCCC1(CC)CS(=O)(=O)c2ccccc2C(Sc2ccccc2)C1O (stereo not drawn) [Example 21a, 3-Butyl-3-ethyl-4-hydroxy-5-phenylthio-2,3,4,5-tetrahydro-benzothiepine-1,1-dioxide]

SMILES	inhibition at 100 µM
CCC1CS(=O)(=O)c2ccccc2[C@@]2(c3ccccc3)O[C@@H]12 (stereo partly drawn) [Example 13, (1aα,2α,8bα) 2-Ethyl-8b-phenyl-1a,2,3,8b-tetrahydro-benzothiepino-[4,5-b] oxirene-4,4-dioxide]	23%

Same assay, conditions: H14 cells, Table 5; read-out: IC50 uM (In vitro Taurocholate Cell Uptake)

IC50	SMILES
5 µM	CCCC[C@]1(CC)CS(=O)(=O)c2ccccc2[C@@H](c2ccccc2)[C@@H]1O [Example 6a, (3α,4α,5β) 3-Butyl-3-ethyl-4-hydroxy-5-phenyl-2,3,4,5-tetrahydrobenzothiepine-1,1-dioxide]
30 µM	CCCC[C@]1(CC)CSc2ccccc2[C@H](c2ccccc2)[C@@H]1O [Example 61, (3α,4α,5α) 3-Butyl-3-ethyl-4-hydroxy-5-phenyl-2,3,4,5-tetrahydrobenzothiepine]

SMILES	IC50
CCCC[C@]1(CC)CS(=O)(=O)c2ccccc2[C@@H](c2ccc(I)cc2)[C@H]1O [Example 42, (3α,4β,5β) 3-Butyl-3-ethyl-4-hydroxy-5-(4-iodophenyl)-2,3,4,5-tetrahydrobenzothiepine-1,1-dioxide]	1.5 µM

Same assay, conditions: read-out: Human TC IC50

IC50	SMILES
0.26 µM	CCCCC1(CC)CS(=O)(=O)c2ccc(NO)cc2C(c2ccccc2)C1O (single isomer, unassigned) [Example 1314]

Same assay, conditions: read-out: In vitro % Inhibition of TC Uptake @ 100 uM

SMILES	inhibition at 100 µM
CCC1C=C(c2ccccc2)c2ccccc2SC1 (stereo not drawn) [Example 12, 3-Ethyl-5-phenyl-2,3-dihydrobenzothiepine]	25%
